{"source": "patent US20240024291A1", "about": "“Uses of Dihydroorotate Dehydrogenase Inhibitors” (University of Maryland, Baltimore, priority 2022, published 2024)", "test_in_all_cases": "CellTiter-Glo in vitro proliferation assay", "format_in_all_cases": "cell-based", "key": {"[1]": {"test_system": "1079 glioblastoma neurosphere line", "settings": "Homo sapiens", "protocol": "(§1) A Biospherix X3, hypoxic incubation system, was maintained at 37° C., 1% 02, 5% CO2, and 94% N2 (Biospherix, Ltd—Parish, NY) to conduct in vitro hypoxic experiments. Cells were plated, then incubated in normoxia overnight before transferring the culture dishes to hypoxia for the duration indicated in the main text.\n(§2) Glioblastoma neurosphere lines were plated in 96-well plates at 25,000 cells per well in […] of media and treated with compound 1 in the presence or absence of 100 μM uridine. Cell Titer-Glo® Luminescent Cell Viability Assay (Promega, Madison, WI, USA) was performed 72 hours after treatment. Luminescence was determined using a Cytation 5 reader and Gen5 software package (BioTek, Winooski, VT, USA).\n(§3) The compound's efficacy was examined against a collection of genetically diverse patient-derived GSC lines in vitro. The IC50 profiles of compound 1 in the seven GSC lines tested were established using the CellTiter-Glo® reagent and calculated with GraphPad software."}, "[2]": {"test_system": "Mayo6 glioblastoma neurosphere line", "settings": "Homo sapiens", "protocol": "as §1, §2, §3"}, "[3]": {"test_system": "Mayo15 glioblastoma neurosphere line", "settings": "Homo sapiens", "protocol": "as §1, §2, §3"}, "[4]": {"test_system": "3691 glioblastoma neurosphere line", "settings": "Homo sapiens, 72 h, 3691 (table prints 3639)", "protocol": "as §1, §2, §3"}}, "data": [{"molecule": "CCn1c(CO)nn(-c2cc(O[C@@H](C)C(F)(F)F)c(C(=O)Nc3c(F)cccc3Cl)cc2F)c1=O", "note": "[Compound 1, N-(2-chloro-6-fluorophenyl)-4-[4-ethyl-4,5-dihydro-3-(hydroxymethyl)-5-oxo-1H-1,2,4-triazol-1-yl]-5-fluoro-2-[(1S)-2,2,2-trifluoro-1-methylethoxy]-benzamide]", "values": [{"measurement": "IC50", "setting": "[1]; 1079", "value": 1.2, "unit": "µM"}, {"measurement": "IC50", "setting": "[1]; 72 h, 1079, hypoxia, 72 hours", "value": 23.7, "unit": "µM"}, {"measurement": "IC50", "setting": "[1]; 72 h, 1079, normoxia, 72 hours", "value": 1.2, "unit": "µM"}, {"measurement": "IC50", "setting": "[2]; 72 h, Mayo6, hypoxia", "value": 228, "unit": "µM"}, {"measurement": "IC50", "setting": "[2]; 72 h, Mayo6, normoxia", "value": 164, "unit": "µM"}, {"measurement": "IC50", "setting": "[2]; Mayo6", "value": 164, "unit": "µM"}, {"measurement": "IC50", "setting": "[3]; 72 h, Mayo15, hypoxia", "value": 146, "unit": "µM"}, {"measurement": "IC50", "setting": "[3]; 72 h, Mayo15, normoxia", "value": 64, "unit": "µM"}, {"measurement": "IC50", "setting": "[3]; Mayo15", "value": 64, "unit": "µM"}, {"measurement": "IC50", "setting": "[4]; hypoxia", "value": 0.0122, "unit": "µM"}, {"measurement": "IC50", "setting": "[4]; normoxia", "value": 0.0074, "unit": "µM"}]}]}
